By IC50 is commonly meant the concentration that gives 50% inhibition.

This is an account of results in patent publication US11976083B2, “Inhibitors of peptidylarginine deiminases” (Gilead Sciences, Inc., priority 2020, dated 2024).

The assay addresses T1, human PAD4 (Homo sapiens, UniProt Q9UM07).
T1 construct: human PAD4 (NM_012387), A2-P663, was PCR amplified; His-SUMO (N, cleaved yes); made in house; host or cells: E. coli BL21(DE3)
The assay can be described thus: In vitro PAD4 BAEE biochemical assay. The following applies: BAEE substrate 3 mM, 5 nM PAD4, 2 mM calcium chloride; geometric mean of multiple experiments. The procedure, abridged: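 Recombinant PAD4 (5 nM final) with 2 mM CaCl2 was preincubated with compound for 30 min at 25 °C in MOPS pH 7.6 buffer with DTT, then reacted with 3 mM BAEE for 2 h at 25 °C. Released ammonia was detected fluorimetrically with o-phthalaldehyde/DTT; IC50 from four-parameter fit, geometric mean of experiments.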

T1 sequence (Q9UM07 2-663): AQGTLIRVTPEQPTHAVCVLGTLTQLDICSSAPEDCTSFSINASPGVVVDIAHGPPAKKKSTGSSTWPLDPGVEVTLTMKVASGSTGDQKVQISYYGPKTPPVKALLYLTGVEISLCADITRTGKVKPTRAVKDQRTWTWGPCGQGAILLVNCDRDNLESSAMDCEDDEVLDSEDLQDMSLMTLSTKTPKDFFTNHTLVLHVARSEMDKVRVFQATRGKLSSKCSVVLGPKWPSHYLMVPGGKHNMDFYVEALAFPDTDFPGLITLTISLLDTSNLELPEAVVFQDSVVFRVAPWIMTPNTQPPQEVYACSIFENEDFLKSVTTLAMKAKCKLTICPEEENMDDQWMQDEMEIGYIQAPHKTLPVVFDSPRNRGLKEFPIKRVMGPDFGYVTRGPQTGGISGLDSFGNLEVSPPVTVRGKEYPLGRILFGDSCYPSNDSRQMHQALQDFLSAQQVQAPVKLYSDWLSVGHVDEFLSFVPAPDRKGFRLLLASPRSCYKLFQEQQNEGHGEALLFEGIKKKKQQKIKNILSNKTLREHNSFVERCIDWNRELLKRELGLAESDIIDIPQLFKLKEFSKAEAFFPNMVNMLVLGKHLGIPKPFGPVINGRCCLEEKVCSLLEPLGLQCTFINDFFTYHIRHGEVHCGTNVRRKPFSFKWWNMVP

For the compound `COc1cc(C(=O)N2[C@H]3CC[C@@H]2[C@H](N)C3)cc2nc(-c3cc4ccc5nc4n3CCC3(CC3)COCCC(=O)N[C@@H]5C)c(C)n12` [Example 331, (11~{R})-17-[7-[(1~{R},2~{R},4~{S})-2-amino-7-azabicyclo[2.2.1]heptane-7-carbonyl]-5-methoxy-3-methyl-imidazo[1,2-a]pyridin-2-yl]-11-methyl-spiro[6-oxa-1,10,19-triazatricyclo[10.5.2.0^{15,18}]nonadeca-12(19),13,15(18),16-tetraene-4,1′-cyclopropane]-9-one], the IC50 turned out to be 69 nM.

As to `C[C@H]1NC(=O)[C@@H]2C[C@H]2CCCCCn2c(-c3nc4cc(C(=O)N[C@H]5CNCC[C@@H]5F)cnc4n3C3CC3)cc3ccc1nc32` [Example 573, 3-cyclopropyl-~{N}-[(3~ {S},4~{S})-4-fluoro-3-piperidyl]-2-[(2~{R},5~ {R},7~{R})-2-methyl-4-oxo-3,13,19-triazatetracyclo [11.5.2.0^{5,7}.0^{16,20}]icosa-1(19),14,16(20), 17-tetraen-14-yl]imidazo [4,5-b]pyridine-6-carboxamide], the IC50 is 23 nM. As for `C[C@H]1NC(=O)[C@H]2[C@@H](CCCCCn3c(-c4nc5cc(C(=O)N[C@H]6CNCC[C@@H]6F)c(F)cc5n4C4CC4)cc4ccc1nc43)C2(F)F` [Example 392, 1-cyclopropyl-2-[(2~{R},5~{R},7~{R})-6,6-difluoro-2-methyl-4-oxo-3,13,19-triazatetracyclo[11.5.2.0^{5,7}.0^{16,20}]icosa-1(19),14,16(20),17-tetraen-14-yl]-6-fluoro-~{N}-[(3~{S},4~{S})-4-fluoro-3-piperidyl]benzimidazole-5-carboxamide], the figure is 22 nM; as for `COc1cc(C(=O)N2CC[C@@H](OC)[C@@H](N)C2)cc2nc(-c3cc4ccc5nc4n3CCCCCc3cncc(Cl)c3C(=O)N[C@@H]5C)n(C)c12` [Example 651, (2~{R})-17-[5-[(3~{S}, 4~{R})-3-amino-4-methoxy-piperidine-1-carbonyl]-7-methoxy-1-methyl-benzimidazol-2-yl]-6-chloro-2-methyl-3,8,16,22-tetrazatetracyclo[14.5.2.0^ {5,10).0^{19,23}]tricosa-1(22),5,7,9,17,19(23),20-heptaen-4-one], 59 nM; as for `C[C@@H]1[C@H](N)CCCN1C(=O)c1cc(F)c2c(c1)nc(-c1cc3ccc4nc3n1CCCCCc1nc3ccsc3cc1C(=O)N[C@@H]4C)n2C1CC1` [Example 796, (2~{R})-20-[5-[(2~{R},3~{R})-3-amino-2-methyl-piperidine-1-carbonyl]-1-cyclopropyl-7-fluoro-benzimidazol-2-yl]-2-methyl-8-thia-3,12,19,25-tetrazapentacyclo[17.5.2.0^ {5,13}.0^{7,11).0^{22,26}] hexacosa-1(24),5(13), 6,9,11,20,22,25-octaen-4-one], 5 nM. As for `COc1cc(C(=O)N2C[C@H](N)[C@@H]3CC[C@H]2C3)cc2nc(-c3cc4ccc5nc4n3CCCCCc3nc(Cl)ccc3C(=O)N[C@@H]5C)c(C)n12` [Example 811, (2~{R})-17-[7-[(1~{S),4~ {R},5~{R})-4-amino-2-azabicyclo[3.2.1]octane-2-carbonyl]-5-methoxy-3-methyl-imidazo[1,2-a]pyridin-2-yl]-8-chloro-2-methyl-3,9,16,22-tetrazatetracyclo[14.5.2.0^ {5,10).0^{19,23}]tricosa-1(21),5(10),6,8,17,19,22-heptaen-4-one], the figure is 26 nM; as for `C[C@H]1NC(=O)[C@H]2C[C@@H]2CC[C@@H]2C[C@@H]2Cn2c(-c3nc4cc(C(=O)N[C@H]5CNCC[C@@H]5F)c(F)cc4n3C)cc3ccc1nc32` [Example 379, 6-fluoro-~{N}-[(3~{S),4~{S})-4-fluoro-3-piperidyl]-1-methyl-2-[(3~{S},5~{R},8~{S},10~{S},13~{R})-13-methyl-11-oxo-1,12,21-triazapentacyclo[12.5.2.0^{3,5}.0^{8,10}.0^ {17,20}]henicosa-14(21),15,17(20),18-tetraen-19-yl]benzimidazole-5-carboxamide], 2040 nM.
